Results published in ChEMBL document CHEMBL1158693, “Antiinsectan decaturin and oxalicine analogues from Penicillium thiersii” (2005).

Columns and labels:
Format in all cases: functional
Parameters in all cases: scale not given: the % may be the effect or the level left
Spodoptera frugiperda [1] = experiment: Antiinsecticidal activity against Spodoptera frugiperda assessed as reduction in growth rate at 100 ppm relative to control
Spodoptera frugiperda [2] = experiment: Antiinsecticidal activity against Spodoptera frugiperda assessed as reduction in growth rate at 80 ppm relative to control
Spodoptera frugiperda [3] = experiment: Antiinsecticidal activity against Spodoptera frugiperda assessed as reduction in growth rate at 360 ppm relative to control

Structure (SMILES)	Activity (Spodoptera frugiperda [1]) [%]	further results
CC1=CC[C@@H]2[C@]34CC[C@](O)(OC3)C(C)(C)[C@@H]4CC[C@@]2(C)[C@@]12Oc1cc(-c3cccnc3)oc(=O)c1[C@@H]2O [DECATURIN B]	89	–
CC1=CC[C@@H]2[C@]34CC[C@](O)(OC3)C(C)(C)[C@@H]4CC[C@@]2(C)[C@]12Cc1c(cc(-c3cccnc3)oc1=O)O2 [DECATURIN C]	–	Activity (Spodoptera frugiperda [2]): 28%
CC1=CC[C@@H]2[C@@]3(C)CCC(=O)C(C)(C)[C@@H]3CC[C@@]2(C)[C@]12Cc1c(cc(-c3cccnc3)oc1=O)O2 [DECATURIN D]	77	–
C=C(C)[C@@H]1CC[C@]2(C)[C@H](CC=C(C)[C@]23Oc2cc(-c4cccnc4)oc(=O)c2[C@@H]3O)[C@@]12CCC(=O)OC2 [OXALICINE A]	–	Activity (Spodoptera frugiperda [3]): 98%
C=C(C)[C@]1(O)CC[C@]2(C)[C@H](CC=C(C)[C@]23Oc2cc(-c4cccnc4)oc(=O)c2[C@@H]3O)[C@@]12CCC(=O)OC2 [OXALICINE B]	62	–
